Source: ChEMBL document CHEMBL6074635, “Replacement of the essential nitro group by electrophilic warheads towards nitro-free antimycobacterial benzothiazinones” (Eur J Med Chem, 2024)

Legend:
[1] = molecular target: T1, Decaprenylphosphoryl-beta-D-ribose oxidase (Mycobacterium tuberculosis (strain ATCC 25618 / H37Rv)) (UniProt P9WJF1); assay: Substrate activity at recombinant Mycobacterium tuberculosis DprE1 extracted from Escherichia coli BL21(DE3) assessed as fold change in Km incubated for 60 mins by resazurin dye based fluorescence plate reader analysis relative to FPR
T1 sequence (whole entry): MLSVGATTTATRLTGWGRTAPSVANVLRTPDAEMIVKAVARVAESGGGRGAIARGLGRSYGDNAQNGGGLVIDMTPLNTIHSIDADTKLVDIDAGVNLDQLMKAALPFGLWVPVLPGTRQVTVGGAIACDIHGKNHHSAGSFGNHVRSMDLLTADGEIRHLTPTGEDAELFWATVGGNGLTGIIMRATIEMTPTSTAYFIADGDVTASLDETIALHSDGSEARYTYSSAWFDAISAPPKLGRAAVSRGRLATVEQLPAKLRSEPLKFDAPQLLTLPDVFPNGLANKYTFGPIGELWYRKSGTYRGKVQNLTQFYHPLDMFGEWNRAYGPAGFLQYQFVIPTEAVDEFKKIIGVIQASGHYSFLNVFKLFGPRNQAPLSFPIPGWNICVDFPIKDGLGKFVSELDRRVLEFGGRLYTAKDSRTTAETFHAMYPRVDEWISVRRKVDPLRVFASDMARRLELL

[2] = molecular target: T1, Decaprenylphosphoryl-beta-D-ribose oxidase (Mycobacterium tuberculosis (strain ATCC 25618 / H37Rv)); assay: Reversible inhibition of recombinant Mycobacterium tuberculosis DprE1 extracted from Escherichia coli BL21(DE3) using FPR/GGPR as substrate by measuring fold change incubated for 60 mins by resazurin dye based fluorescence plate reader analysis relative to (S)-2-Fluoro-N-(2-(2-methyl-1,4-dioxa-8-azaspiro[4.5]decan-8-yl)-4-oxo-6-(trifluoromethyl)-4H-benzo[e][1,3]thiazin-8-yl)acrylamide
[3] = molecular target: T1, Decaprenylphosphoryl-beta-D-ribose oxidase (Mycobacterium tuberculosis (strain ATCC 25618 / H37Rv)); assay: Covalent inhibition of recombinant Mycobacterium tuberculosis DprE1 extracted from Escherichia coli BL21(DE3) assessed as inactivation rate constant (Kinact) using FPR/GGPR as substrate incubated for 60 mins by resazurin dye based fluorescence plate reader analysis
[4] = molecular target: T1, Decaprenylphosphoryl-beta-D-ribose oxidase (Mycobacterium tuberculosis (strain ATCC 25618 / H37Rv)); assay: Covalent inhibition of recombinant Mycobacterium tuberculosis DprE1 extracted from Escherichia coli BL21(DE3) assessed as Kinact/Ki ratio using FPR/GGPR as substrate incubated for 60 mins by resazurin dye based fluorescence plate reader analysis

## CC(C)=CCC/C(C)=C/CC/C(C)=C/CC/C(C)=C/COP(=O)(O)OC1O[C@H](CO)[C@@H](O)[C@H]1O (some centres undefined)
[1]
  fold change (FC): 22

## C=CS(=O)(=O)Nc1cc(C(F)(F)F)cc2c(=O)nc(N3CCC4(CC3)OC[C@H](C)O4)sc12
[2]
  fold change (FC): 8

## C[C@H]1COC2(CCN(c3nc(=O)c4cc(C(F)(F)F)cc(NC(=O)C(C)(C)Br)c4s3)CC2)O1
[3]
  Kinact: 0.067 min⁻¹
[4]
  Ratio: 2.13 M⁻¹ s⁻¹
